Drawing on US8889670B2, “Heterocyclic compounds which modulate the CB2 receptor” (Boehringer Ingelheim International GmbH, priority 2009, dated 2014), this text covers EC50 for 33 compounds.

For the first test, the target named is T1, human CB2R (Homo sapiens, UniProt P34972).
T1 construct: host or cells: CHO cells
T1 sequence (P34972 whole entry): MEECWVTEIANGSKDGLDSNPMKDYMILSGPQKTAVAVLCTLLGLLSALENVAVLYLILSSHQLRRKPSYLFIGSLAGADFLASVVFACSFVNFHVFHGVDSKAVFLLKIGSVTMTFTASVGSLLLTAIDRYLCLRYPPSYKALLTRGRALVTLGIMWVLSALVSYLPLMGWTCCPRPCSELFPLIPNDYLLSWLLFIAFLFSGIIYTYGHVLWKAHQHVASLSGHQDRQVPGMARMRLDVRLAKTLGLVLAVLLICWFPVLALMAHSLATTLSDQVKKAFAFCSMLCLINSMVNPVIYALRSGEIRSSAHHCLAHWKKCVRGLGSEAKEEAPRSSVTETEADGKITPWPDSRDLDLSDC
The experiment in a line: CB2R mediated modulation of cAMP synthesis (forskolin-stimulated cAMP, CHO cells expressing human CB2R). In kind it is cell-based.
Conditions: not given
The method, then: B. CB2R Mediated Modulation of cAMP Synthesis:
Compounds of the invention were evaluated for their CB2 agonist or inverse agonistic activity in accordance with the following experimental method.
CHO cells expressing human CB2R (Euroscreen) were plated at a density of 5000 cells per well in 384 well plates and incubated overnight at 37° C. After removing the media, the cells were treated with test compounds diluted in stimulation buffer containing 1 mM IBMX, 0.25% BSA and 10 uM Forskolin. The assay was incubated for 30 minutes at 37° C. Cells were lysed and the cAMP concentration was measured using DiscoverX-XS cAMP kit, following the manufacturer's protocol. In this setting, agonists will decrease forskolin induced production of cAMP while inverse agonists will further increase forskolin induced production of cAMP. EC50 of agonists were calculated as follows. The maximal amount of cAMP produced by forskolin compared to the level of cAMP inhibited by 1 uM CP55940 is defined as 100%. […] Data was analyzed using a four-parameter logistic model. (Model 205 of XLfit 4.0).
For `O=C(Nc1nc(-c2ccc(Cl)cc2)cs1)[C@@H]1CCCCN1C(=O)N1CCS(=O)(=O)CC1` [(S)-1-(1,1-Dioxo-1λ^6-thiomorpholine-4-carbonyl)-piperidine-2-carboxylic acid [4-(4-chloro-phenyl)-thiazol-2-yl]-amide], the midpoint of the response, the EC50, lay at 9.9 nM.
`CC(C)(C)c1cc(NC(=O)[C@@H]2CCCCN2C(=O)N2CCC(F)(F)CC2)no1` [(S)-1-(4,4-Difluoro-piperidine-1-carbonyl)-piperidine-2-carboxylic acid (5-tert-butyl-isoxazol-3-yl)-amide]: a half-maximal response (EC50) required 3.7 nM.
With `CC(C)(C)c1cc(NC(=O)[C@@H]2CCCCN2C(=O)C[C@H]2CCCO2)no1` [(S)-1-((R)-2-Tetrahydro-furan-2-yl-acetyl)-piperidine-2-carboxylic acid (5-tert-butyl-isoxazol-3-yl)-amide], the EC50 (usually the concentration giving half of the maximal effect) turned out to be 94 nM.
Still for that read-out and setting: then `CC(C)(C)c1cc(NC(=O)[C@@H]2CCCCCN2c2ccc(Cl)cc2)no1` [(S)-1-(4-Chloro-phenyl)-azepane-2-carboxylic acid (5-tert-butyl-isoxazol-3-yl)-amide], with 0.4 nM.
The same measure, in the same setting: the result for `CC(C)(C)c1cc(NC(=O)[C@@H]2CCCCCN2C(=O)N2CCS(=O)(=O)CC2)no1` [(S)-1-(1,1-Dioxo-1λ^6-thiomorpholine-4-carbonyl)-azepane-2-carboxylic acid (5-tert-butyl-isoxazol-3-yl)-amide] reads 15 nM; that for `CC(C)(C)c1cc(NC(=O)[C@@H]2CCCCN2C(=O)CN2CCC(F)(F)C2)no1` [(S)-1-[2-(3,3-Difluoro-pyrrolidin-1-yl)-acetyl]-piperidine-2-carboxylic acid (5-tert-butyl-isoxazol-3-yl)-amide], 2.9 nM; that for `CC(C)(C)c1cc(NC(=O)[C@@H]2CCCCN2Cc2ccc(F)c(F)c2)no1` [(S)-1-(3,4-Difluoro-benzyl)-piperidine-2-carboxylic acid (5-tert-butyl-isoxazol-3-yl)-amide], 0.58 nM.
Still for that read-out and setting: the result for `CC(C)(C)c1cc(NC(=O)[C@@H]2CCCCN2C(=O)C(F)(F)F)no1` [(S)-1-(2,2,2-Trifluoro-acetyl)-piperidine-2-carboxylic acid (5-tert-butyl-isoxazol-3-yl)-amide] reads 48 nM; that for `CC(C)(C)c1cc(NC(=O)[C@@H]2CCCCN2C(=O)CN2CCC(F)(F)CC2)no1` [(S)-1-[2-(4,4-Difluoro-piperidin-1-yl)-acetyl]-piperidine-2-carboxylic acid (5-tert-butyl-isoxazol-3-yl)-amide], 34 nM; that for `CC(C)(C)c1cc(NC(=O)[C@@H]2CCCCN2C(=O)C2CCS(=O)(=O)C2)no1` (stereo partly drawn) [(S)-1-(1,1-Dioxo-tetrahydro-1λ^6-thiophene-3-carbonyl)-piperidine-2-carboxylic acid (5-tert-butyl-isoxazol-3-yl)-amide], 17 nM.
In turn, `CC(C)(C)c1cc(NC(=O)C2CCCN(C(=O)c3ccc(C(F)(F)F)cc3)C2)no1` (stereo not drawn) [1-(4-Trifluoromethyl-benzoyl)-piperidine-3-carboxylic acid (5-tert-butyl-isoxazol-3-yl)-amide] gave an EC50 of 16 nM.
The same measure, in the same setting: the result for `CC(C)(C)c1cc(NC(=O)[C@@H]2CCCCN2CC2CCOCC2)sn1` [(S)-1-(Tetrahydro-pyran-4-ylmethyl)-piperidine-2-carboxylic acid (3-tert-butyl-isothiazol-5-yl)-amide] reads 0.3 nM; that for `CC(C)(C)c1cc(NC(=O)C2CCCN(C(=O)C3CCC(F)(F)CC3)C2)no1` (stereo not drawn) [1-(4,4-Difluoro-cyclohexanecarbonyl)-piperidine-3-carboxylic acid (5-tert-butyl-isoxazol-3-yl)-amide], 23 nM; that for `O=C(Nc1nc(-c2ccc(F)cc2)cs1)[C@@H]1CCCCN1C(=O)N1CCS(=O)(=O)CC1` [(S)-1-(1,1-Dioxo-1λ^6-thiomorpholine-4-carbonyl)-piperidine-2-carboxylic acid [4-(4-fluoro-phenyl)-thiazol-2-yl]-amide], 38 nM.
Still for that read-out and setting: then `CC(C)(C)c1cc(NC(=O)[C@@H]2CCCCN2C(=O)c2cccc(Cl)c2)no1` [(S)-1-(3-Chloro-benzoyl)-piperidine-2-carboxylic acid (5-tert-butyl-isoxazol-3-yl)-amide], with 44 nM; and `O=C(Nc1cc(C2CCCCC2)no1)[C@@H]1CCCCN1C(=O)N1CCS(=O)(=O)CC1` [(S)-1-(1,1-Dioxo-1λ^6-thiomorpholine-4-carbonyl)-piperidine-2-carboxylic acid (3-cyclohexyl-isoxazol-5-yl)-amide], with 59 nM.
`CC(C)(C)c1cc(NC(=O)C2CCCN(c3ncc(C(F)(F)F)cc3Cl)C2)no1` (stereo not drawn) [3′-Chloro-5′-trifluoromethyl-3,4,5,6-tetrahydro-2H-[1,2′]bipyridinyl-3-carboxylic acid (5-tert-butyl-isoxazol-3-yl)-amide] came in with an EC50 of 113 nM.
As to `CC(C)(C)c1cc(NC(=O)[C@H]2CCCCN2C(=O)C2CCC(F)(F)CC2)no1` [(R)-1-(4,4-Difluoro-cyclohexanecarbonyl)-piperidine-2-carboxylic acid (5-tert-butyl-isoxazol-3-yl)-amide], the EC50 amounted to 64 nM.

Still in this test, the particulars now being: agonist EC50, inhibition of forskolin-stimulated cAMP synthesis; CHO cells expressing human CB2R; mean; read-out: CB2 CAMP @ EC50 nM (mean).
With `O=C(Nc1nc(-c2ccccc2)cs1)[C@@H]1CCCCN1CC1CCOCC1` [(S)-1-(Tetrahydro-pyran-4-ylmethyl)-piperidine-2-carboxylic acid (4-phenyl-thiazol-2-yl)-amide], the EC50 was 9.9 nM.
On to `CCc1sc(NC(=O)[C@@H]2CCCCN2C(=O)N2CCS(=O)(=O)CC2)nc1-c1ccccc1` [(S)-1-(1,1-Dioxo-1λ^6-thiomorpholine-4-carbonyl)-piperidine-2-carboxylic acid (5-ethyl-4-phenyl-thiazol-2-yl)-amide], for which the EC50 turned out to be 5.2 nM.
As to `CC(C)(C)OC(=O)N1CCCC[C@H]1C(=O)Nc1cc(C(C)(C)C)on1` [(S)-2-(5-tert-Butyl-isoxazol-3-ylcarbamoyl)-piperidine-1-carboxylic acid tert-butyl ester], the EC50 was found to be 279 nM.
With `O=C(Nc1nc(-c2ccc(F)cc2)ns1)[C@@H]1CCCCN1C(=O)N1CCS(=O)(=O)CC1` [(S)-1-(1,1-Dioxo-1λ^6-thiomorpholine-4-carbonyl)-piperidine-2-carboxylic acid [3-(4-fluoro-phenyl)-[1,2,4]thiadiazol-5-yl]-amide], the EC50 was 22 nM.
On to `CC(C)(C)c1nnc(NC(=O)[C@@H]2CCCCN2C2CCC2)s1` [(S)-1-Cyclobutyl-piperidine-2-carboxylic acid (5-tert-butyl-1,3,4-thiadiazol-2-yl)-amide], for which the EC50 was determined as 140 nM.
On the same count and under the same terms, the result for `O=C(Nc1nc(-c2ccccc2)ns1)[C@@H]1CCCCN1CC1CCOCC1` [(S)-1-(Tetrahydro-pyran-4-ylmethyl)-piperidine-2-carboxylic acid (3-phenyl-1,2,4-thiadiazol-5-yl)-amide] reads 1.2 nM; that for `O=C(Nc1ccc(C(F)(F)F)c(F)c1)[C@@H]1CCCCN1CC1CCOCC1` [(S)-1-(Tetrahydro-pyran-4-ylmethyl)-piperidine-2-carboxylic acid (3-fluoro-4-trifluoromethyl-phenyl)-amide], 1.8 nM; that for `O=C(Nc1nc(-c2ccccc2)ns1)[C@@H]1CCCCN1c1ncc(C(F)(F)F)cc1Cl` [(S)-3′-Chloro-5′-trifluoromethyl-3,4,5,6-tetrahydro-2H-1,2′-bipyridinyl-2-carboxylic acid (3-phenyl-1,2,4-thiadiazol-5-yl)-amide], 11 nM.
For the compound `O=C(Nc1nc(C2CCCCC2)cs1)[C@@H]1CCCCN1C1CCOCC1` [(S)-1-(Tetrahydro-pyran-4-yl)-piperidine-2-carboxylic acid (4-cyclohexyl-thiazol-2-yl)-amide], the EC50 amounted to 65 nM.
Same read-out and setting: then `CCc1sc(NC(=O)[C@@H]2CCCCN2CC2CCOCC2)nc1-c1ccccc1` [(S)-1-(Tetrahydro-pyran-4-ylmethyl)-piperidine-2-carboxylic acid (5-ethyl-4-phenyl-thiazol-2-yl)-amide], with 0.55 nM; and `O=C(Nc1nc(-c2ccc(F)c(F)c2)cs1)[C@@H]1CCCCN1C(=O)N1CCS(=O)(=O)CC1` [(S)-1-(1,1-Dioxo-1λ^6-thiomorpholine-4-carbonyl)-piperidine-2-carboxylic acid [4-(3,4-difluoro-phenyl)-thiazol-2-yl]-amide], with 26 nM.
Same read-out and setting: the result for `CC(C)(C)OC(=O)N1CCCC[C@H]1C(=O)Nc1nnc(C(C)(C)C)s1` [(S)-2-(5-tert-Butyl-1,3,4-thiadiazol-2-ylcarbamoyl)-piperidine-1-carboxylic acid tert-butyl ester] reads 495 nM; that for `COCC(C)(C)c1cc(NC(=O)[C@@H]2CCCCN2C(=O)N2CCS(=O)(=O)CC2)no1` [(S)-1-(1,1-Dioxo-1λ^6-thiomorpholine-4-carbonyl)-piperidine-2-carboxylic acid [5-(2-methoxy-1,1-dimethyl-ethyl)-isoxazol-3-yl]-amide], 162 nM.
Same read-out and setting: then `CCn1nc(NC(=O)[C@@H]2CCCCN2C(=O)CN2CCC(F)(F)C2)nc1-c1ccccc1` [(S)-1-[2-(3,3-Difluoro-pyrrolidin-1-yl)-acetyl]-piperidine-2-carboxylic acid (1-ethyl-5-phenyl-1H-1,2,4-triazol-3-yl)-amide], with 262 nM; and `O=C(Nc1nc2cc(Cl)ccc2s1)[C@@H]1CCCCN1C1CCOCC1` [(S)-1-(Tetrahydro-pyran-4-yl)-piperidine-2-carboxylic acid (5-chloro-benzothiazol-2-yl)-amide], with 206 nM.
